Log 1/Ki app data for 35 compounds are collected here from ChEMBL document CHEMBL1122559, “Inhibition of human dihydrofolate reductase by 4,6-diamino-1,2-dihydro-2,2-dimethyl-1-(substituted-phenyl)-s-triazine s. A quantitative structure-activity relationship analysis” (J Med Chem, 1984).

The experiment concerns the target T1, Dihydrofolate reductase (Homo sapiens) (UniProt P00374).
T1 sequence (whole entry): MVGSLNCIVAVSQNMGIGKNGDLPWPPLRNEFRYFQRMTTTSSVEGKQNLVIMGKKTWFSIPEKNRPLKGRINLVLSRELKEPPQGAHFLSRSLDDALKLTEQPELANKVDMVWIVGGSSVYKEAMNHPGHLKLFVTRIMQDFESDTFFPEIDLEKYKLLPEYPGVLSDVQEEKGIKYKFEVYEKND
Description: Inhibitory activity against human lymphoblastoid cell (WIL2) dihydrofolate reductase (DHFR)

Consider `CC1(C)N=C(N)N=C(N)N1c1ccc(Br)cc1`, for which the Log 1/Ki app was determined as 5.76.

For `COC(=O)c1ccc(N2C(N)=NC(N)=NC2(C)C)cc1`, the Log 1/Ki app amounted to 3.85.

In turn, `CC1(C)N=C(N)N=C(N)N1c1ccc(OCc2ccc(CO)cc2)cc1` registered a Log 1/Ki app of 7.12.

In turn, `CC(=O)c1ccc(N2C(N)=NC(N)=NC2(C)C)cc1` yielded a Log 1/Ki app of 4.5.

For the compound `CC1(C)N=C(N)N=C(N)N1c1ccc(OCc2ccc(C(N)=O)cc2)cc1`, the Log 1/Ki app was 7.23.

As to `CC1(C)N=C(N)N=C(N)N1c1ccc(OCc2ccccc2)cc1`, the Log 1/Ki app was found to be 6.93.

In the case of `CCCCCCCCCc1ccc(N2C(N)=NC(N)=NC2(C)C)cc1`, the Log 1/Ki app turned out to be 6.52.

For `CC(C)(C)c1ccc(N2C(N)=NC(N)=NC2(C)C)cc1`, the Log 1/Ki app was determined as 5.66.

As to `CC1(C)N=C(N)N=C(N)N1c1ccc(CSc2ccccc2)cc1`, the Log 1/Ki app worked out at 7.33.

As to `CCCCCCCCCCCOc1ccc(N2C(N)=NC(N)=NC2(C)C)cc1`, the Log 1/Ki app was determined as 5.68.

On to `CC1(C)N=C(N)N=C(N)N1c1ccc(F)cc1`, for which the Log 1/Ki app is 6.15.

As to `CCOC(=O)c1ccc(N2C(N)=NC(N)=NC2(C)C)cc1`, the Log 1/Ki app came to 3.46.

`CC1(C)N=C(N)N=C(N)N1c1ccc(O)cc1` registered a Log 1/Ki app of 4.57.

Take `CC1(C)N=C(N)N=C(N)N1c1ccc(S(N)(=O)=O)cc1`: the Log 1/Ki app was found to be 3.81.

`Cc1ccc(N2C(N)=NC(N)=NC2(C)C)cc1` gave a Log 1/Ki app of 5.97.

Compound `COc1ccc(N2C(N)=NC(N)=NC2(C)C)cc1` registered a Log 1/Ki app of 5.31.

Compound `CC1(C)N=C(N)N=C(N)N1c1ccc(OCCOc2ccc(N)cc2)cc1` gave a Log 1/Ki app of 6.

Take `Cc1cccc(SCc2ccc(N3C(N)=NC(N)=NC3(C)C)cc2)c1`: the Log 1/Ki app amounted to 7.22.

For `CC1(C)N=C(N)N=C(N)N1c1ccc(I)cc1`, the Log 1/Ki app came out at 5.51.

The compound `CC1(C)N=C(N)N=C(N)N1c1ccc(N)cc1` registered a Log 1/Ki app of 4.65.

With `CC1(C)N=C(N)N=C(N)N1c1ccc(C(F)(F)F)cc1`, the Log 1/Ki app came to 5.58.

As for `CC1(C)N=C(N)N=C(N)N1c1ccc(OCC(=O)N2CCOCC2)cc1`, the Log 1/Ki app worked out at 5.66.

With `CC(=O)Nc1ccc(N2C(N)=NC(N)=NC2(C)C)cc1`, the Log 1/Ki app amounted to 4.23.

In turn, `CC1(C)N=C(N)N=C(N)N1c1ccc(C#Cc2ccccc2)cc1` had a Log 1/Ki app of 5.42.

The compound `CC1(C)N=C(N)N=C(N)N1c1ccc(C#N)cc1` had a Log 1/Ki app of 3.69.

In the case of `CCCCCCCCCCCCOc1ccc(N2C(N)=NC(N)=NC2(C)C)cc1`, the Log 1/Ki app was 5.85.

`Cc1ccccc1SCc1ccc(N2C(N)=NC(N)=NC2(C)C)cc1` displayed a Log 1/Ki app of 7.18.

`CC1(C)N=C(N)N=C(N)N1c1ccc(OCc2ccc(Cl)c(Cl)c2)cc1`: the Log 1/Ki app worked out at 6.46.

`CCCCCCOc1ccc(N2C(N)=NC(N)=NC2(C)C)cc1` came in with a Log 1/Ki app of 5.53.

Take `CC1(C)N=C(N)N=C(N)N1c1ccc(SCc2ccc(Cl)cc2)cc1`: the Log 1/Ki app is 6.97.

In turn, `CC1(C)N=C(N)N=C(N)N1c1ccc(OCc2ccc(S(N)(=O)=O)cc2)cc1` yielded a Log 1/Ki app of 7.21.

Regarding `CC1(C)N=C(N)N=C(N)N1c1ccc(S(C)(=O)=O)cc1`, the Log 1/Ki app is 4.08.

Take `CC1(C)N=C(N)N=C(N)N1c1ccc(SCc2ccccc2)cc1`: the Log 1/Ki app worked out at 7.01.

`CCCCc1ccc(N2C(N)=NC(N)=NC2(C)C)cc1` came in with a Log 1/Ki app of 6.27.

`CCCOc1ccc(N2C(N)=NC(N)=NC2(C)C)cc1`: the Log 1/Ki app was determined as 5.57.
